According to patent US8609669B2, “Potassium channel modulators” (AbbVie Inc., priority 2010, dated 2013):

Legend:
[1] = molecular target: T1, KCNQ 2/3 channels (HEK293 cells stably expressing human KCNQ2 and KCNQ3 subunits) (Homo sapiens, UniProt O43525+O43526); assay: KCNQ2/3 channel activation, thallium flux FLIPR assay (BTC-AM dye); type: cell-based; settings: for Emax: HEK293, maximum response relative to response of retigabine at 10 μM (set at 100%), read-out: Max. %; for EC50: HEK293 cells expressing human KCNQ2 and KCNQ3, FLIPR thallium flux
T1 construct: expressed in transfected cells; host or cells: HEK293
In short: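 HEK293 cells stably expressing human KCNQ2/KCNQ3 were loaded with BTC-AM and exposed to compound for 4 min in pH 7.3 gluconate buffer with ouabain. Thallium flux was triggered with 6 mM TlNO3 and 10 mM K2SO4 (stock additions) and fluorescence (ex 488, em 540 nm) recorded for 3 min. EC50 came from responses over baseline; maximal response is relative to 10 μM retigabine (100%).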

[2] = system: CCI-induced mechanical allodynia; assay: Chronic constriction injury (CCI) model of neuropathic pain (Bennett model); type: in vivo, Sprague-Dawley rats; settings: rat CCI, about 30 mg/kg i.p., 30 minutes or more before testing
Text: (§1) Adult male Sprague-Dawley rats (250-300 g body weight, Charles River Laboratories, Portage, Mich.) were used. Animal handling and experimental protocols were approved by the Institutional Animal Care and Use Committee (IACUC) at Abbott Laboratories. For all surgical procedures, animals were maintained under isoflurane anesthesia (4-5% to induce, 1-3% to maintain), and the incision sites were sterilized using a 10% povidone-iodine solution prior to and after surgeries.
(§2) Tactile (mechanical) allodynia was measured using calibrated von Frey filaments (Stoelting, Wood Dale, Ill.) as described in Chaplan, S. R., F. W. Bach, J. M. Pogrel, J. M. Chung and T. L. Yaksh, 1994, Quantitative assessment of tactile allodynia in the rat paw, J. Neurosci. Methods, 53, 55. Rats were placed into inverted individual plastic containers (20×12.5×20 cm) on top of a suspended wire mesh grid, and acclimated to the test chambers for 20 minutes. The von Frey filaments were presented perpendicularly to the plantar surface of the selected hind paw, and then held in this position for approximately 8 seconds with enough force to cause a slight bend in the filament. Positive responses include an abrupt withdrawal of the hind paw from the stimulus, or flinching behavior immediately following removal of the stimulus.
A model of chronic constriction injury-induced (CCI) neuropathic pain was produced by following the method of Bennett and Xie (1988, Pain, 33, 87-107). The right common sciatic nerve was isolated at mid-thigh level, and loosely ligated by 4 chromic gut (5-0) ties separated by an interval of 1 mm. Sham rats can underwent the same procedure, but without sciatic nerve constriction. All animals can be left to recover for at least 2 weeks and no more than 5 weeks prior to testing of mechanical allodynia. Compounds were injected (i.p.) 30 minutes or more before testing.

[3] = system: SNL-induced tactile allodynia; assay: Spinal nerve ligation (SNL) model of neuropathic pain; type: in vivo, Sprague-Dawley rats; settings: rat SNL, about 30 mg/kg i.p., 30 minutes or more before testing
Text: as §1
as §2, with “stimulus. […]” for “stimulus.”

[4] = system: Capsaicin-induced secondary mechanical hyperalgesia / tactile allodynia; assay: Capsaicin-induced secondary mechanical hypersensitivity; type: in vivo, Sprague-Dawley rats; settings: rat, about 30 mg/kg i.p., 30 minutes before testing, von Frey
Text: as §1
Rats were allowed to acclimate to the study room for 1 hour. They were then briefly restrained, and capsaicin was administered at 10 μg in 10 μL of vehicle (10% ethanol and 2-hydroxypropyl cyclodextrin) by intraplantar injection into the center of the right hind paw. Secondary mechanical hyperalgesia was measured at the heel away from the site of injection at 180 minutes following capsaicin (Joshi et al., 2006, Neuroscience 143, 587-596). Compounds were injected (i.p.) 30 minutes before testing (150 minutes post-capsaicin).
Tactile (mechanical) allodynia was measured using calibrated von Frey filaments (Stoelting, Wood Dale, Ill.) as described in Chaplan, S. R., F. W. Bach, J. M. Pogrel, J. M. Chung and T. L. Yaksh, 1994, Quantitative assessment of tactile allodynia in the rat paw, J. Neurosci. Methods, 53, 55. […]
Tactile allodynia was measured as described above.

Cc1cnc2c(-c3ccc(F)c(C)c3)c(NC(=O)CCC3CCCCC3)nn2c1 [Example 35, 3-cyclohexyl-N-[3-(4-fluoro-3-methylphenyl)-6-methylpyrazolo[1,5-a]pyrimidin-2-yl]propanamide] was tested, and the Emax [1] was 116%, the EC50 [1] was less than 100 nM and the “change in paw withdrawal latency versus vehicle” value (“change” for short) [2] was “statistically significant change”.

With Cc1ccnc2c(-c3ccc(OC(F)(F)F)cc3)c(NC(=O)Cc3ccc(F)cc3)nn12 [Example 9, 2-(4-fluorophenyl)-N-{7-methyl-3-[4-(trifluoromethoxy)phenyl]pyrazolo[1,5-a]pyrimidin-2-yl}acetamide] the Emax [1] was 119%, the EC50 [1] was 500 to 1000 nM and the “change” value [2] was “statistically significant change”. For the same compound, the “change” value [3] was “statistically significant change”.

For O=C(CCC1CCCC1)Nc1nn2cccnc2c1-c1ccc(Cl)cc1 [Example 7, N-[3-(4-chlorophenyl)pyrazolo[1,5-a]pyrimidin-2-yl]-3-cyclopentylpropanamide], the Emax [1] was 150%, the EC50 [1] was 100 to 500 nM and the “change” value [3] was “statistically significant change”.

CC(C)(C)CC(=O)Nc1nn2cccnc2c1-c1ccc(OC(F)(F)F)cc1 [Example 1, 3,3-dimethyl-N-(3-(4-(trifluoromethoxy)phenyl)pyrazolo[1,5-a]pyrimidin-2-yl)butanamide] was tested, and the “change” value [4] was “statistically significant change” and the “change” value [2] was “statistically significant change”.

Compound Cc1ccnc2c(-c3ccc(OC(F)(F)F)cc3)c(NC(=O)CC3CC4CCC3C4)nn12 (racemic) [Example 160, (±)-exo-2-bicyclo[2.2.1]hept-2-yl-N-{7-methyl-3-[4-(trifluoromethoxy)phenyl]pyrazolo[1,5-a]pyrimidin-2-yl}acetamide] has an Emax [1] of 148% and an EC50 [1] of less than 100 nM.

Work on Cc1cnc2c(-c3ccccc3)c(NC(=O)Cc3ccc(Cl)cc3)nn2c1 [Example 93, 2-(4-chlorophenyl)-N-(6-methyl-3-phenylpyrazolo[1,5-a]pyrimidin-2-yl)acetamide] yielded an Emax [1] of 131% and an EC50 [1] of 100 to 500 nM.

With Cc1cnc2c(-c3cccc(F)c3)c(NC(=O)CC3CCCC3)nn2c1 [Example 83, 2-cyclopentyl-N-[3-(3-fluorophenyl)-6-methylpyrazolo[1,5-a]pyrimidin-2-yl]acetamide] the Emax [1] was 139% and the EC50 [1] was 100 to 500 nM.

For CC(C)(C)c1c(NC(=O)CCC2CCCC2)nn2cccnc12 [Example 105, N-(3-tert-butylpyrazolo[1,5-a]pyrimidin-2-yl)-3-cyclopentylpropanamide], the Emax [1] was 153% and the EC50 [1] was 100 to 500 nM.

O=C(CC1CCCC1)Nc1nn2cccnc2c1-c1cccc(C(F)(F)F)c1 [Example 64, 2-cyclopentyl-N-{3-[3-(trifluoromethyl)phenyl]pyrazolo[1,5-a]pyrimidin-2-yl}acetamide] gave an Emax [1] of 113% and an EC50 [1] greater than 10000 nM.
